The source of these data is patent US20110230430A1, “SAPONIN EXTRACT FROM SAPONARIA SPP. AND USES THEREOF” (NATIONAL RESEARCH COUNCIL OF CANADA, priority 2008, published 2011).

This data set can be described thus: Haemolytic properties of selected saponins. Particulars: saponins purified to more than 75%. An excerpt:
The haemolytic properties of the various saponins that have been purified to more than 75% have been examined and are provided in Table 39. Haemolytic properties are not directly related to anti-cancer or apoptosis inducing properties of saponins but may be related to toxicity and utility of the saponins for preparation of injectable formulations. Saponins most suitable for injectable formulation will be less haemolytic. QS21, a purified Quillaja saponaria saponin with known haemolytic activity is used as reference.

QS21 [reference compound] came in with an HD50 of 7.5 µM.
